Results as given in patent publication US10351589B2, “3α-ethynyl, 3β-hydroxy-5α-pregnan-20-oxime for use in the treatment of CNS disorders” (Umecrine Cognition AB, priority 2015, dated 2019).

Key:
Assay type in all cases: cell-based
α5β3γ2L GABAA receptor [1] = target: T1, α5β3γ2L GABAA receptor (Homo sapiens, UniProt P18507+P28472+P31644); test: Example 3: comparative patch clamp test of compound and epimer, change in chloride flow through α5β3γ2L GABAA receptor; conditions: for action on the GABA receptor subunit alpha 5: summary of Table 4
T1 construct: expressed in transfected cells; host or cells: HEK-293 (permanently transfected)
Excerpt: (§1) HEK-293 cells, permanently transfected with the human α1β2γ2 GABAA and α5β3γ2 GABAA receptor expressing functional α1β2γ2L and α5β3γ2L GABAA receptors were used. The cell lines permanently expressing a functional human GABAA receptor was made in following steps. The GABAA receptor subunits α1(308-1727 NM_000806), β2 (214-1679 NM_000813), and γ2L (290-1785 NM_198904) including introduced Kozac sequences just before the start codons were subcloned into mammalian expression vectors containing Geneticin, Hygromycin B, and Zeocin resistance, respectively. A HEK-293 cell line stably expressing the three GABAA receptor subunits was produced by transfection of the subunits one at a time. The transfection was followed by selection with the appropriate antibiotics, cell separation with the use of subunit specific antibodies (β2 and γ2), and production of single cell colonies. Produced cell lines were analysed with immunocytochemistry for the three GABAA receptor subunits, followed by selection of a suitable cell line showing for the GABAA receptor normal and good reactivity in a patch-clamp analysis (see below) towards GABA and the GAMS tetrahydrodeoxycorticosterone (THDOC).
(§2) Experiments were carried out to investigate the effect of 3α-ethynyl, 3β-hydroxy, 5α-pregnan-20-oxime on the GABAA receptor function in absence and in presence of the GAMS Tetrahydrodeoxycorticosterone (THDOC) by the Dynaflow™ system on HEK-293 cells. In these tests the protocol was optimized to be similar to the physiological conditions in the synaptic cleft.
(§3) Cell culture: HEK-293 cells, permanently transfected with human α1β2γ2 GABAA and α5β3γ2 GABAA receptor subtypes, were seeded at a density of 3×10^4/25 cm^2 in cellbind culture flask. The transfected cells were used for patch-clamp experiments 3 days after seeding. When using the cells for patch-clamp experiments the cells were washed twice with O2 bubbled EC-solution (see below). About 5 mL EC was then added and the cells were kept in the incubator for about 15 minutes. After 15 minutes the cells come loose from the bottom of the flask and were separated by carefully sucking couple of times with a Pasteur pipette.
(§4) Dynaflow™ system: Dynaflow™ system with resolve chips was used for all patch-clamp experiments. The resolve chips is made of non-sticky materials. The channel width is 150 μm and the height 50 μm. The well volume is 280 μL. Run time at the flow rate of […]. is […]. The pump settings were as follow: Omnifix 2 mL syringe with inner diameter of 9.65 mm was used. The syringe pump flow rate of chip was 26 μL/min.
Electrophysiology: Patch electrodes were pulled from 1.5 mm O.D., 0.86 mm I.D. borosilicate capillary glass without filament. […] The intracellular solution consisted of (in mM): 140 Cs-gluconate, 3.0 NaCl, 1.2 MgCl2, 1.0 EGTA, 10 HEPES. pH was adjusted to 7.2 with CsOH. The extracellular (EC) solution used during recordings contained (in mM): 137 NaCl, 5.0 KCl, 1.0 CaCl2, 1.2 MgCl2, 10 HEPES, 10 glucose. pH was adjusted with NaOH to 7.4. After compensating for the liquid junction potential a steady holding potential of −17 mV was used in all experiments. In physiological conditions the HEK-293 has a resting potential at −40 mV and a low concentration of chloride ions inside the cell. By using the holding potential of −17 mV and the intracellular solution with low chloride ion concentration the chloride ions flux into the cell when the receptors are activated. All experiments were performed at room temperature (21 to 23° C.). A standard protocol was used for all experiments.
GABA applications: By using the Dynaflow equipment it is possible to study transfected HEK-293 during almost physiological conditions. The Dynaflow system allows application of solutions for as short as 40 ms up to minutes in time. Physiologically, in the synaptic cleft, GABA is released in mM range for about 2 ms this is valid for alpha1 receptors. […]

α5β3γ2L GABAA receptor [2] = target: T1, α5β3γ2L GABAA receptor; test: Patch clamp (Dynaflow) current response mediated by chloride ion flux, α5β3γ2L GABAA receptor in HEK-293 cells; conditions: for Relative effect Mean (%) / Relative effect Median: 200 nM THDOC + 0.3 μM GABA, control set to 0
Excerpt: as §1, §2, §3, §4
(§5) Steroids and GABA: GABA was dissolved in EC-solution by ultrasound for about 40 minutes to the concentration of 10 mM in room temperature. All steroids were dissolved to the concentration of 6 mM in ethanol. The ethanol concentration was 0.1% in all end-solutions, including the wash solution (EC) and the solution with GABA alone. End-solutions are the solutions added into the wells of the chip.
(§6) Electrophysiology: Patch electrodes were pulled from 1.5 mm O.D., 0.86 mm I.D. borosilicate capillary glass without filament. […] The intracellular solution consisted of (in mM): 140 Cs-gluconate, 3.0 NaCl, 1.2 MgCl2, 1.0 EGTA, 10 HEPES. pH was adjusted to 7.2 with CsOH. The extracellular (EC) solution used during recordings contained (in mM): 137 NaCl, 5.0 KCl, 1.0 CaCl2, 1.2 MgCl2, 10 HEPES, 10 glucose. pH was adjusted with NaOH to 7.4. After compensating for the liquid junction potential a steady holding potential of −17 mV was used in all experiments. In physiological conditions the HEK-293 has a resting potential at −40 mV and a low concentration of chloride ions inside the cell. By using the holding potential of −17 mV and the intracellular solution with low chloride ion concentration the chloride ions flux into the cell when the receptors are activated. All experiments were performed at room temperature (21 to 23° C.). A standard protocol was used for all experiments. […]

[3] = target: T2, human α1β2γ2L GABAA receptor (Homo sapiens, UniProt P14867+P18507+P47870); test: Patch clamp (Dynaflow) current response mediated by chloride ion flux, α1β2γ2L GABAA receptor in HEK-293 cells
T2 construct: expressed in transfected cells
Excerpt: as §1, §2, §3, §4, §5, §6

T1 sequence (P31644 32-462): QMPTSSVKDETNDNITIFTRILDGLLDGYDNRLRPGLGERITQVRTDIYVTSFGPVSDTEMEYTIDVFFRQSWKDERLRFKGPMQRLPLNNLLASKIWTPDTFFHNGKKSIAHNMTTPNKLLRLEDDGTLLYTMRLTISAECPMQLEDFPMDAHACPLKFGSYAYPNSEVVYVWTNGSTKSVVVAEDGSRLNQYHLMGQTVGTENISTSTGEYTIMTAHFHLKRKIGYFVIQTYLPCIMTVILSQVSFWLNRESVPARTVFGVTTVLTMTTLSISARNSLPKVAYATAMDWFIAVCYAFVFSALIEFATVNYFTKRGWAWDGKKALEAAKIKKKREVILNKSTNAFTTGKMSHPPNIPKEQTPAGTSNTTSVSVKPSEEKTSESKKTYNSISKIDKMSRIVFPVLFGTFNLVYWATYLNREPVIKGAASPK
T1 sequence (P28472 26-473): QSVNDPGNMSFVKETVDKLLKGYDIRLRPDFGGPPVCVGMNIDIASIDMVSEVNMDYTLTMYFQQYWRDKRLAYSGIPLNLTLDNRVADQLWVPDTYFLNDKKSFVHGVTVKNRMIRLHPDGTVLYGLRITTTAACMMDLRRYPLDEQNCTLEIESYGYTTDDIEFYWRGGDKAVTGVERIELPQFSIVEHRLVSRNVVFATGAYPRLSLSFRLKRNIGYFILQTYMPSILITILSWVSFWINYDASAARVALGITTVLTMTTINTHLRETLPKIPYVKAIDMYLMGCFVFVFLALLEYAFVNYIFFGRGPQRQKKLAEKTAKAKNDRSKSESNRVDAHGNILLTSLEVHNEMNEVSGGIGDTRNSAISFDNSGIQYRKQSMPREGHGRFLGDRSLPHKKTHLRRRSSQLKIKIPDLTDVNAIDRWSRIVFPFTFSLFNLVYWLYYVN
T1 sequence (P18507 40-475): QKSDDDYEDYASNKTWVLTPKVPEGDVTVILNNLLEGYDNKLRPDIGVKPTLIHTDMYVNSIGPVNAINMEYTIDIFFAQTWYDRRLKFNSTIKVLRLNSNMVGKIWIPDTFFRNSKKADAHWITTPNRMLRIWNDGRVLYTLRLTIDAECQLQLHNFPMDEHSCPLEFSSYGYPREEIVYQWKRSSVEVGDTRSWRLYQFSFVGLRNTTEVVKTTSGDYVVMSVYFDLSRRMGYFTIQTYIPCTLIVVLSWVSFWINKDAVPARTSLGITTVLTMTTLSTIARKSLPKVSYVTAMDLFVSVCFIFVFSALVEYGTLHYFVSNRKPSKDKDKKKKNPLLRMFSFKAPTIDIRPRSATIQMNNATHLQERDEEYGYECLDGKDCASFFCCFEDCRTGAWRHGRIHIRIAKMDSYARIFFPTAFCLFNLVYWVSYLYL
T2 sequence (P14867 28-456): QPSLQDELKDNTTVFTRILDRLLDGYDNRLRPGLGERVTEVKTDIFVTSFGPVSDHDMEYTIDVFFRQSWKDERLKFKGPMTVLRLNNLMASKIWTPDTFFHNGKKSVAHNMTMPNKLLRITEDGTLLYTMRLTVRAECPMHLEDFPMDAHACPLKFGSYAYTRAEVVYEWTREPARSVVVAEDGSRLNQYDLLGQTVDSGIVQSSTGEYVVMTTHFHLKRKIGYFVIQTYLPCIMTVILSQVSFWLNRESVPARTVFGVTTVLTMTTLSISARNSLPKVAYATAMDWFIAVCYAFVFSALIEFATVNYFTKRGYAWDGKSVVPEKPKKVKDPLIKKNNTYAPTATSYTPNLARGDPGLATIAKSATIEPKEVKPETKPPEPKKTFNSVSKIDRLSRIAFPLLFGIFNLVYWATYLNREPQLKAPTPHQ
T2 sequence (P47870 26-474 isoform P47870-1 limits assumed): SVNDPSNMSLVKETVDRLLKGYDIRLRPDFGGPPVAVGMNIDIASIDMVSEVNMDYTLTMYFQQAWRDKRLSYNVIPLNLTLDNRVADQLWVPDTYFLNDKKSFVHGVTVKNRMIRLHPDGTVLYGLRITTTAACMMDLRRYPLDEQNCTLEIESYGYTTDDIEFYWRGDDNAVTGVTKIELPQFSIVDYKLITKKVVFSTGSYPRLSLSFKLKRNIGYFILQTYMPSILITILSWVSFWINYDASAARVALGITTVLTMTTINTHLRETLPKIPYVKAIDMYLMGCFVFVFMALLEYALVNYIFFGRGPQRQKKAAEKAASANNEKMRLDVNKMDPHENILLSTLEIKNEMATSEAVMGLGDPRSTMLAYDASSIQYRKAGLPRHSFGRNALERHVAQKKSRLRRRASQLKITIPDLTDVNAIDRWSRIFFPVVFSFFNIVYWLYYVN
T2 sequence (P18507 40-475): as the sequence (P18507 40-475) above

`C#C[C@]1(O)CC[C@@]2(C)C(CCC3C2CC[C@@]2(C)C3CC[C@@H]2/C(C)=N/O)C1` (stereo partly drawn) [Compound, 3α-ethynyl, 3β-hydroxy, 5α-pregnan-20-oxime] was tested, and the “Mean % (SEM) Compound + GABA, change in chloride flow” value (α5β3γ2L GABAA receptor [1]; 1 μM steroid, α5β3γ2L) was −19 (2) %, the “Mean % (SEM) Compound + THDOC + GABA, change in chloride flow” value (α5β3γ2L GABAA receptor [1]; 1 μM steroid, α5β3γ2L) was −15 (3) % and the “Mean % (SEM) Compound + THDOC, change in chloride flow” value (α5β3γ2L GABAA receptor [1]; 1 μM steroid, α5β3γ2L) was −30 (6) %. The “Mean % (SEM) Compound alone, change in chloride flow” value (α5β3γ2L GABAA receptor [1]; 1 μM steroid, α5β3γ2L) was “no effect”, the “mode of action, Compound + GABA” value (α5β3γ2L GABAA receptor [1]; 1 μM steroid, α5β3γ2L) was “antagonist” and the “mode of action, Compound + THDOC” value (α5β3γ2L GABAA receptor [1]; 1 μM steroid, α5β3γ2L) was “antagonist”. For the same compound, the “mode of action, Compound + THDOC + GABA” value (α5β3γ2L GABAA receptor [1]; 1 μM steroid, α5β3γ2L) was “antagonist”, the “action on the GABA receptor subunit alpha 5” value (α5β3γ2L GABAA receptor [1]) was “antagonist” and the “Relative effect Mean (%)” value (α5β3γ2L GABAA receptor [2]; 0.1 μM compound) was −3.0%. The “Relative effect Median” value (α5β3γ2L GABAA receptor [2]; 0.1 μM compound) was −1.6, the “effect on 200 nM THDOC evoked current (direct activation by GAMS)” value (α5β3γ2L GABAA receptor [2]; 200 nM THDOC, no GABA) was “antagonizing effect” and the “Relative effect Mean (%)” value (α5β3γ2L GABAA receptor [2]; 0.3 μM compound) was −6.6%. For the same compound, the “Relative effect Median” value (α5β3γ2L GABAA receptor [2]; 0.3 μM compound) was −6.9, the “Relative effect Mean (%)” value (α5β3γ2L GABAA receptor [2]; 1 μM compound) was −15.2% and the “Relative effect Median” value (α5β3γ2L GABAA receptor [2]; 1 μM compound) was −11.0. The “Relative effect Mean (%)” value (α5β3γ2L GABAA receptor [2]; 3 μM compound) was −20.7%, the “Relative effect Median” value (α5β3γ2L GABAA receptor [2]; 3 μM compound) was −23.6 and the “effect on 200 nM GAMS (THDOC) and 0.3 μM GABA evoked currents” value (α5β3γ2L GABAA receptor [2]; 0.1-3 μM compound) was “clear concentration dependent antagonizing effect”. The “action on α5β3γ2L receptor subtype” value (α5β3γ2L GABAA receptor [2]; all tested situations with GAMS and GABA) was “antagonist”, the “Compound + GABA, current response” value (α5β3γ2L GABAA receptor [2]; α5β3γ2) was −18.8 ± 2.2 and the “Compound + GAMS + GABA, current response” value (α5β3γ2L GABAA receptor [2]; α5β3γ2, GAMS = THDOC) was −15.2 ± 2.8. For the same compound, the “Compound + GAMS, current response” value (α5β3γ2L GABAA receptor [2]; α5β3γ2, GAMS = THDOC, no GABA) was −29.7 ± 6.5, the “Compound alone, current response” value (α5β3γ2L GABAA receptor [2]; α5β3γ2, no GABA, no GAMS) was “No effect” and the “direct activation of the GABAA receptor in absence of GABA” value ([3]; 1 μM compound) was “did not activate”. For the same compound, the “increase of GABA mediated current response” value ([3]; 1 μM compound, α1β2γ2L) was “approximately 10%”, the “effect on GABA's opening of the α1β2γ2L GABAA receptor” value ([3]; compound + GABA) was “slight agonistic effect” and the “effect of compound alone on chloride flux” value ([3]; compound alone) was “no enhancing or antagonizing effect”. The “Compound + GABA, current response” value ([3]; α1β2γ2L) was “+11 ± 4”, the “antagonistic effect against the enhancing effect of THDOC” value ([3]; α1β2γ2L receptor) was “no antagonistic effect” and the “Compound + GAMS + GABA, current response” value ([3]; α1β2γ2L, GAMS = THDOC) was “No effect”. The “Compound alone, current response” value ([3]; α1β2γ2L, no GABA, no GAMS) was “No effect”.
In the case of `C#C[C@@]1(O)CC[C@@]2(C)[C@@H](CC[C@@H]3[C@@H]2CC[C@]2(C)[C@@H](C(C)=NO)CC[C@@H]32)C1` [Comparator, 3β-ethynyl, 3α-hydroxy, 5α-pregnan-20-oxime], the “Mean % (SEM) Compound + GABA, change in chloride flow” value (α5β3γ2L GABAA receptor [1]; 1 μM steroid, α5β3γ2L) is reported as “+210 (23) %”, the “Mean % (SEM) Compound + THDOC + GABA, change in chloride flow” value (α5β3γ2L GABAA receptor [1]; 1 μM steroid, α5β3γ2L) is reported as “+80 (8) %” and the “Mean % (SEM) Compound + THDOC, change in chloride flow” value (α5β3γ2L GABAA receptor [1]; 1 μM steroid, α5β3γ2L) is reported as “+128 (22) %”. For the same compound, the “Mean % (SEM) Compound alone, change in chloride flow” value (α5β3γ2L GABAA receptor [1]; 1 μM steroid, α5β3γ2L) was “+50 (12) %”, the “mode of action, Compound + GABA” value (α5β3γ2L GABAA receptor [1]; 1 μM steroid, α5β3γ2L) was “agonist” and the “mode of action, Compound + THDOC” value (α5β3γ2L GABAA receptor [1]; 1 μM steroid, α5β3γ2L) was “agonist”. For the same compound, the “mode of action, Compound + THDOC + GABA” value (α5β3γ2L GABAA receptor [1]; 1 μM steroid, α5β3γ2L) was “agonist”, the “mode of action, Compound alone” value (α5β3γ2L GABAA receptor [1]; 1 μM steroid, α5β3γ2L) was “agonist” and the “action on the GABA receptor subunit alpha 5” value (α5β3γ2L GABAA receptor [1]) was “agonist”.
